In US6613718B2, “Aryl ether derivatives and processes for their preparation and herbicidal and desiccant compositions containing them” (Ishihara Sangyo Kaisha, Ltd., priority 2001, dated 2003):

Legend:
Format in all cases: in vivo
Conditions in all cases: 14 days after application
[1] = system: large crabgrass (Digitaria sanguinalis, DIGSA); assay: Pre-emerge greenhouse herbicide activity screening, phytotoxicity rating
Summary of the method: (§1)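 Plants grown in sandy loam pots received acetone solutions of compound by moving-nozzle track sprayer, 15–1000 g ai/ha. In post-emergence runs the foliage was at the 2-3 leaf stage and spray contained 0.25% v/v non-ionic surfactant. Damage was assessed visually after 14 days (0-100).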

[2] = system: common ragweed (Ambrosia artemisiifolia L., AMBEL); assay: as above
Summary of the method: as §1

[3] = system: lambsquarters (Chenopodium album, CHEAL); assay: as above
Summary of the method: as §1

[4] = system: green foxtail (Setaria viridis, SETVI); assay: as above
Summary of the method: as §1

[5] = system: ivyleaf morningglory (Ipomoea hederacea, IPOHE); assay: as above
Summary of the method: as §1

[6] = system: velvetleaf (Abutilon theophrasti, ABUTH); assay: as above
Summary of the method: as §1

[7] = system: barnyardgrass (Echinochloa crus-galli, ECHCG); assay: as above
Summary of the method: as §1

[8] = system: redroot pigweed (Amaranthus retroflexus, AMARE); assay: as above
Summary of the method: as §1

[9] = system: johnsongrass (Sorghum halepense, SORHA); assay: as above
Summary of the method: as §1

[10] = system: sicklepod (Cassia obtusifolia, CASOB); assay: as above
Summary of the method: as §1

[11] = system: large crabgrass (Digitaria sanguinalis, DIGSA); assay: Post-emerge greenhouse herbicide activity screening, phytotoxicity rating
Summary of the method: as §1

[12] = system: common ragweed (Ambrosia artemisiifolia L., AMBEL); assay: as above
Summary of the method: as §1

[13] = system: lambsquarters (Chenopodium album, CHEAL); assay: as above
Summary of the method: as §1

[14] = system: green foxtail (Setaria viridis, SETVI); assay: as above
Summary of the method: as §1

[15] = system: ivyleaf morningglory (Ipomoea hederacea, IPOHE); assay: as above
Summary of the method: as §1

[16] = system: velvetleaf (Abutilon theophrasti, ABUTH); assay: as above
Summary of the method: as §1

[17] = system: barnyardgrass (Echinochloa crus-galli, ECHCG); assay: as above
Summary of the method: as §1

[18] = system: redroot pigweed (Amaranthus retroflexus, AMARE); assay: as above
Summary of the method: as §1

[19] = system: johnsongrass (Sorghum halepense, SORHA); assay: as above
Summary of the method: as §1

[20] = system: sicklepod (Cassia obtusifolia, CASOB); assay: as above
Summary of the method: as §1

[21] = system: soybean (Glycine max L., var. Pella 86, SOY); assay: Pre-emerge greenhouse screening, crop safety (phytotoxicity rating)
Summary of the method: as §1

[22] = system: field corn (Zea mays L., var. Dekalb 535, CORN); assay: as above
Summary of the method: as §1

[23] = system: upland rice (Oryza sp., var.Tebonnet, RICE); assay: as above
Summary of the method: as §1

[24] = system: soybean (Glycine max L., var. Pella 86, SOY); assay: Post-emerge greenhouse screening, crop safety (phytotoxicity rating)
Summary of the method: as §1

[25] = system: upland rice (Oryza sp., var.Tebonnet, RICE); assay: as above
Summary of the method: as §1

[26] = system: field corn (Zea mays L., var. Dekalb 535, CORN); assay: Post-emerge greenhouse screening, crop safety / corn selectivity (phytotoxicity rating)
Summary of the method: as §1

Structure (SMILES): Cn1c(C(F)(F)F)cc(=O)n(-c2cc(Oc3ccccc3C#N)c(Cl)cc2F)c1=S [Compound 1-66]
- DIGSA phytotoxicity rating (0-100 scale) ([1]; 125 g ai/ha): 90
- DIGSA phytotoxicity rating (0-100 scale) ([1]; 250 g ai/ha): 99
- AMBEL phytotoxicity rating (0-100 scale) ([2]; 125 g ai/ha): 60
- AMBEL phytotoxicity rating (0-100 scale) ([2]; 250 g ai/ha): 65
- CHEAL phytotoxicity rating (0-100 scale) ([3]; 125 g ai/ha): 100
- CHEAL phytotoxicity rating (0-100 scale) ([3]; 250 g ai/ha): 100
- SETVI phytotoxicity rating (0-100 scale) ([4]; 125 g ai/ha): 99
- SETVI phytotoxicity rating (0-100 scale) ([4]; 250 g ai/ha): 100
- IPOHE phytotoxicity rating (0-100 scale) ([5]; 125 g ai/ha): 90
- IPOHE phytotoxicity rating (0-100 scale) ([5]; 250 g ai/ha): 100
- ABUTH phytotoxicity rating (0-100 scale) ([6]; 125 g ai/ha): 85
- ABUTH phytotoxicity rating (0-100 scale) ([6]; 250 g ai/ha): 99
- ECHCG phytotoxicity rating (0-100 scale) ([7]; 125 g ai/ha): 55
- ECHCG phytotoxicity rating (0-100 scale) ([7]; 250 g ai/ha): 60
- AMARE phytotoxicity rating (0-100 scale) ([8]; 125 g ai/ha): 100
- AMARE phytotoxicity rating (0-100 scale) ([8]; 250 g ai/ha): 100
- SORHA phytotoxicity rating (0-100 scale) ([9]; 125 g ai/ha): 60
- SORHA phytotoxicity rating (0-100 scale) ([9]; 250 g ai/ha): 75
- CASOB phytotoxicity rating (0-100 scale) ([10]; 125 g ai/ha): 35
- CASOB phytotoxicity rating (0-100 scale) ([10]; 250 g ai/ha): 65
- DIGSA phytotoxicity rating (0-100 scale) ([11]; 125 g ai/ha): 0
- DIGSA phytotoxicity rating (0-100 scale) ([11]; 250 g ai/ha): 0
- AMBEL phytotoxicity rating (0-100 scale) ([12]; 125 g ai/ha): 75
- AMBEL phytotoxicity rating (0-100 scale) ([12]; 250 g ai/ha): 75
- CHEAL phytotoxicity rating (0-100 scale) ([13]; 125 g ai/ha): 98
- CHEAL phytotoxicity rating (0-100 scale) ([13]; 250 g ai/ha): 100
- SETVI phytotoxicity rating (0-100 scale) ([14]; 125 g ai/ha): 0
- SETVI phytotoxicity rating (0-100 scale) ([14]; 250 g ai/ha): 0
- IPOHE phytotoxicity rating (0-100 scale) ([15]; 125 g ai/ha): 70
- IPOHE phytotoxicity rating (0-100 scale) ([15]; 250 g ai/ha): 85
- ABUTH phytotoxicity rating (0-100 scale) ([16]; 125 g ai/ha): 90
- ABUTH phytotoxicity rating (0-100 scale) ([16]; 250 g ai/ha): 90
- ECHCG phytotoxicity rating (0-100 scale) ([17]; 125 g ai/ha): 0
- ECHCG phytotoxicity rating (0-100 scale) ([17]; 250 g ai/ha): 0
- AMARE phytotoxicity rating (0-100 scale) ([18]; 125 g ai/ha): 70
- AMARE phytotoxicity rating (0-100 scale) ([18]; 250 g ai/ha): 70
- SORHA phytotoxicity rating (0-100 scale) ([19]; 125 g ai/ha): 0
- SORHA phytotoxicity rating (0-100 scale) ([19]; 250 g ai/ha): 0
- CASOB phytotoxicity rating (0-100 scale) ([20]; 125 g ai/ha): 75
- CASOB phytotoxicity rating (0-100 scale) ([20]; 250 g ai/ha): 75
- SOY crop damage, phytotoxicity rating (0-100 scale) ([21]; 125 g ai/ha): 0
- SOY crop damage, phytotoxicity rating (0-100 scale) ([21]; 250 g ai/ha): 0
- CORN crop damage, phytotoxicity rating (0-100 scale) ([22]; 125 g ai/ha): 0
- CORN crop damage, phytotoxicity rating (0-100 scale) ([22]; 250 g ai/ha): 0
- RICE crop damage, phytotoxicity rating (0-100 scale) ([23]; 125 g ai/ha): 40
- RICE crop damage, phytotoxicity rating (0-100 scale) ([23]; 250 g ai/ha): 45
- SOY crop damage, phytotoxicity rating (0-100 scale) ([24]; 125 g ai/ha): 10
- SOY crop damage, phytotoxicity rating (0-100 scale) ([24]; 250 g ai/ha): 10
- RICE crop damage, phytotoxicity rating (0-100 scale) ([25]; 125 g ai/ha): 0
- RICE crop damage, phytotoxicity rating (0-100 scale) ([25]; 250 g ai/ha): 0
- CORN crop damage, phytotoxicity rating (0-100 scale) ([26]; 125 g ai/ha): 0
- CORN crop damage, phytotoxicity rating (0-100 scale) ([26]; 250 g ai/ha): 0

Structure (SMILES): COc1ccc(Oc2cc(-n3c(=O)cc(C(F)(F)F)n(C)c3=S)c(F)cc2C#N)cc1 [Compound 1-72]
- DIGSA phytotoxicity rating (0-100 scale) ([1]; 125 g ai/ha): 95
- DIGSA phytotoxicity rating (0-100 scale) ([1]; 250 g ai/ha): 99
- AMBEL phytotoxicity rating (0-100 scale) ([2]; 125 g ai/ha): 95
- AMBEL phytotoxicity rating (0-100 scale) ([2]; 250 g ai/ha): 95
- CHEAL phytotoxicity rating (0-100 scale) ([3]; 125 g ai/ha): 100
- CHEAL phytotoxicity rating (0-100 scale) ([3]; 250 g ai/ha): 100
- SETVI phytotoxicity rating (0-100 scale) ([4]; 125 g ai/ha): 20
- SETVI phytotoxicity rating (0-100 scale) ([4]; 250 g ai/ha): 80
- IPOHE phytotoxicity rating (0-100 scale) ([5]; 125 g ai/ha): 95
- IPOHE phytotoxicity rating (0-100 scale) ([5]; 250 g ai/ha): 100
- ABUTH phytotoxicity rating (0-100 scale) ([6]; 125 g ai/ha): 100
- ABUTH phytotoxicity rating (0-100 scale) ([6]; 250 g ai/ha): 100
- ECHCG phytotoxicity rating (0-100 scale) ([7]; 125 g ai/ha): 20
- ECHCG phytotoxicity rating (0-100 scale) ([7]; 250 g ai/ha): 80
- AMARE phytotoxicity rating (0-100 scale) ([8]; 125 g ai/ha): 100
- AMARE phytotoxicity rating (0-100 scale) ([8]; 250 g ai/ha): 100
- SORHA phytotoxicity rating (0-100 scale) ([9]; 125 g ai/ha): 60
- SORHA phytotoxicity rating (0-100 scale) ([9]; 250 g ai/ha): 60
- CASOB phytotoxicity rating (0-100 scale) ([10]; 125 g ai/ha): 65
- CASOB phytotoxicity rating (0-100 scale) ([10]; 250 g ai/ha): 100
- DIGSA phytotoxicity rating (0-100 scale) ([11]; 125 g ai/ha): 0
- DIGSA phytotoxicity rating (0-100 scale) ([11]; 250 g ai/ha): 0
- AMBEL phytotoxicity rating (0-100 scale) ([12]; 125 g ai/ha): 0
- AMBEL phytotoxicity rating (0-100 scale) ([12]; 250 g ai/ha): 0
- CHEAL phytotoxicity rating (0-100 scale) ([13]; 125 g ai/ha): 100
- CHEAL phytotoxicity rating (0-100 scale) ([13]; 250 g ai/ha): 100
- SETVI phytotoxicity rating (0-100 scale) ([14]; 125 g ai/ha): 0
- SETVI phytotoxicity rating (0-100 scale) ([14]; 250 g ai/ha): 0
- IPOHE phytotoxicity rating (0-100 scale) ([15]; 125 g ai/ha): 60
- IPOHE phytotoxicity rating (0-100 scale) ([15]; 250 g ai/ha): 60
- ABUTH phytotoxicity rating (0-100 scale) ([16]; 125 g ai/ha): 80
- ABUTH phytotoxicity rating (0-100 scale) ([16]; 250 g ai/ha): 90
- ECHCG phytotoxicity rating (0-100 scale) ([17]; 125 g ai/ha): 0
- ECHCG phytotoxicity rating (0-100 scale) ([17]; 250 g ai/ha): 0
- AMARE phytotoxicity rating (0-100 scale) ([18]; 125 g ai/ha): 80
- AMARE phytotoxicity rating (0-100 scale) ([18]; 250 g ai/ha): 90
- SORHA phytotoxicity rating (0-100 scale) ([19]; 125 g ai/ha): 0
- SORHA phytotoxicity rating (0-100 scale) ([19]; 250 g ai/ha): 0
- CASOB phytotoxicity rating (0-100 scale) ([20]; 125 g ai/ha): 0
- CASOB phytotoxicity rating (0-100 scale) ([20]; 250 g ai/ha): 0
- SOY crop damage, phytotoxicity rating (0-100 scale) ([21]; 125 g ai/ha): 0
- SOY crop damage, phytotoxicity rating (0-100 scale) ([21]; 250 g ai/ha): 40
- CORN crop damage, phytotoxicity rating (0-100 scale) ([22]; 125 g ai/ha): 5
- CORN crop damage, phytotoxicity rating (0-100 scale) ([22]; 250 g ai/ha): 8
- RICE crop damage, phytotoxicity rating (0-100 scale) ([23]; 125 g ai/ha): 0
- RICE crop damage, phytotoxicity rating (0-100 scale) ([23]; 250 g ai/ha): 0
- SOY crop damage, phytotoxicity rating (0-100 scale) ([24]; 125 g ai/ha): 0
- SOY crop damage, phytotoxicity rating (0-100 scale) ([24]; 250 g ai/ha): 0
- RICE crop damage, phytotoxicity rating (0-100 scale) ([25]; 125 g ai/ha): 0
- RICE crop damage, phytotoxicity rating (0-100 scale) ([25]; 250 g ai/ha): 0
- CORN crop damage, phytotoxicity rating (0-100 scale) ([26]; 125 g ai/ha): 0
- CORN crop damage, phytotoxicity rating (0-100 scale) ([26]; 250 g ai/ha): 0
